Reference: patent US11446299B2, “Carbazole EHop-016 derivatives as anticancer and anti-migratory agents” (UNIVERSITY OF PUERTO RICO, priority 2017, dated 2022)
Several values for one entry are separate records, joined by “and”; a condition that tells them apart may be missing. Equal entries are not always repeated.

How the values were obtained:
[1] = molecular target: Rac (Homo sapiens, UniProt P63000); assay: Rac activation, pulldown with p21-binding domain of PAK / ELISA-based Rac activity assay; assay type: cell-based; set-up: endogenous in cells; host or cells: MDA-MB-231 and MDA-MB-435 human breast cancer cells; details: for efficiency of Rac activation inhibition compared to lead compound Ehop-016: metastatic breast cancer cells
Procedure: FIG. 8 (A-B). Effect of HV-107 on Rac activation. FIG. 8A. MDA-MB-231 and FIG. 8B. MDA-MB-435 human breast cancer cells were treated for 24 h with 0, 100, or 250 nM HV-107. After treatment, total protein was extracted and equal amounts of proteins subjected to pulldown assays using the p21-binding domain of PAK to isolate the GTP bound (active) Rac. Samples were then western blotted for total and active Rac and positive bands quantified using image J. N=2; error bars represent ±SEM; * p≤0.05.
FIG. 10 (A-B). Effect of HV-118 on Rac activation. FIG. 10A. MDA-MB-231 and FIG. 10B. MDA-MB-435 human breast cancer cells were treated for 24 h with 0, 25, 50, or 100 nM HV-118. After treatment, total protein was extracted and equal amounts of proteins subjected to pulldown assays using the p21-binding domain of PAK to isolate the GTP bound (active) Rac. Samples were then western blotted for total and active Rac and positive bands quantified using image J. N=3-6; error bars represent ±SEM; * p≤0.05.
Additionally, the effect of replacing the aliphatic amide group at the 3-position with an aromatic ring, was also explored by synthesizing compound 7b. […] Addition of a three-carbon atom aliphatic chain linker between the pyridine ring (at the 2-position) and the morpholine group, as for 3d and 11a, results in some loss of anti-migratory activity. Moreover, the effect of 11b was tested on Rac activity, using an ELISA-based Rac activity assay and pulldowns assay.
The effects of HV-107 on the inhibition of Rac activation were tested by pulldown assays.
(§1) In FIG. 8A and FIG. 8B, human breast cancer cells MDA-MB-231 and MDA-MB-435, respectively, were treated for 24 h with 0, 250, or 500 nM HV-107. After treatment, total protein was extracted and equal amounts of proteins subjected to pulldown assays using the p21-binding domain of PAK to isolate the GTP bound (active) Rac. Samples were then western blotted for total and active Rac and positive bands quantified using image J. N=2; error bars represent ±SEM; * p≤0.05.
The effects of HV-118 on the inhibition of Rac activation were tested by pulldown assays.
as §1, with “10A” for “8A”, “10B,” for “8B,”, “25, 50,” for “250,”, “100” for “500”, “HV-118.” for “HV-107.”, “N=3-6;” for “N=2;”

[2] = tested on: caspase 3; assay: Caspase-Glo 3/7 assay; assay type: cell-based, human
Procedure: FIG. 15 (A-D). Effect of HV-107 and HV-118 on Caspase 3/7 activity. FIG. 15 A, C. MDA-MB-231 and FIG. 15 B, D. MDA-MB-435 human metastatic breast cancer cells were treated for 48 or 72 h with 0, 500 or 1000 nM HV-107, 100 or 200 nM HV-118. Caspase 3/7 activity was measured using the Caspase-Glo 3/7 Assay (Promega, Corp.) as per manufacturer's instruction. N=4: error bars represent ±SEM; * p≤0.05.
(§2) Subsequently, the effects of HV-107 and HV-118 were evaluated in cell survival and cell migration, known Rac-regulated cell functions relevant for cancer progression. The effects of HV-107 and HV-118 on cancer cell survival were determined by measuring the levels of active caspase 3 in MDA-MB-231 and MDA-MB-435 metastatic breast cancer cells after treatment with HV-107 at 500 and 1000 nM, or HV-118 at 100 and 200 nM for 48-72 h. After 48 h, HV-107 caused a significant 1.4-1.5 fold increase in caspase 3 activity in MDA-MB-231 (at 500 and 1000 nM) and MDA-MB-435 (at 1000 nM) cells. […] The effects of both compounds were also examined in the activity of Akt, an important kinase that promotes survival signaling, is frequently hyperactivated in malignant cancers, and can be regulated by Rac. Because Akt is activated by phosphorylation events, the effects of HV-107 and HV-118 were analyzed in Akt phosphorylation by western blot (FIG. 16 (A-D)).

[3] = tested on: Akt; assay: Akt phosphorylation by western blot; assay type: cell-based, human; details: 24 h
Procedure: FIG. 16 (A-D). Inhibition of pAKT by HV-107 and HV-118. FIG. 16 A, C. MDA-MB-231 and FIG. 16 B, D. MDA-MB-435 human metastatic breast cancer cells were treated for 24 h with 0, 250, 500 or 1000 nM HV-107, 100 or 200 nM HV-118. After treatment, total protein was extracted, and equal amounts of proteins were western blotted for total and phosphorylated Akt (pAkt). Positive bands were quantified using image J. N=4-6; error bars represent t SEM; * p≤0.05.
as §2

Row | inhibition at 0.25 µM ([1]; at 250 nM, 24 h, MDA-MB-231 and MDA-MB-435 cells) | inhibition of Rac activation ([1]; at 250 nM, 24 h, MDA-MB-231 and MDA-MB-435 cells, listed as HV-107, 0.25 µM) | SMILES | efficiency of Rac activation inhibition compared to lead compound Ehop-016 [1] | fold increase in caspase 3 activity ([2]; MDA-MB-231, 48 h, 500 and 1000 nM) | fold increase in caspase 3 activity ([2]; MDA-MB-435, 48 h, 1000 nM) | inhibition at 1 µM ([3]; Homo sapiens, MDA-MB-435, 1000 nM) | inhibition of Akt phosphorylation ([3]; MDA-MB-231, 250-1000 nM) | inhibition at 0.1 µM ([1]; at 100 nM, 24 h, MDA-MB-231 and MDA-MB-435 cells) | potency relative to EHop-016 ([1]; preliminary data) | fold increase in caspase 3 activity ([2]; MDA-MB-231, 48 h, 100 and 200 nM) | fold increase in caspase 3 activity ([2]; MDA-MB-435, 72 h, 'the same level' as in MDA-MB-231) | inhibition of Akt phosphorylation ([3]; both MDA-MB-231 and MDA-MB-435, 100 and 200 nM)
1 | 55% | 60% and 50% | CCn1c2ccccc2c2cc(C(=O)Nc3cccnc3N3CCOCC3)ccc21 [Compound 11b, 9-Ethyl-9H-carbazole-3-carboxylic Acid (2-morpholin-4-yl-pyridin-3-yl)-amide] | approximately 4 × | 1.4-1.5 fold | 1.4-1.5 fold | 25% | 50-60% | – | – | – | – | –
2 | – | – | CCn1c2ccccc2c2cc(Nc3cc(C)nc(Cl)n3)ccc21 [HV-118, (2-Chloro-6-methyl-pyrimidin-4-yl)-(9-ethyl-9H-carbazol-3-yl)-amine] | approximately 10 × | – | – | – | – | ~60% | up to 20 times | 1.6-1.8 fold | 1.6-1.8 fold | 40-60%
